Values quoted from earlier work in US20100323998A1, “TOPICAL COMPOSITION CONTAINING THE COMBINATION OF MUPIROCIN AND BECLOMETHASONE” (Glenmark Pharmaceuticals Ltd., priority 2007, published 2010).

System: Gram-positive and Gram-negative bacteria
Details: in vitro

Q: For `C/C(=C\C(=O)OCCCCCCCCC(=O)O)C[C@@H]1OCC(C[C@@H]2O[C@H]2[C@@H](C)[C@H](C)O)[C@@H](O)[C@H]1O` (stereo partly drawn) [Mupirocin, (E)-(2S,3R,4R,5S)-5-[(2S,3S,4S,5S)-2,3-Epoxy-5-hydroxy-4-methylhexyl]tetrahydro-3,4-dihydroxy-β-methyl-2H-pyran-2-crotonic acid, ester with 9-hydroxynonanoic acid], which “Growth of Gram-positive and Gram-negative bacteria” value is on record?
A: inhibits the growth
